According to patent publication US6495591B1, “Fungal efflux pump inhibitors” (Essential Therapeutics, Inc., priority 1997, dated 2002):
In brackets after ≈: the same amount, converted by molar mass. Read-outs that look alike come from different tables or passages of the source.

Key:
[1] = system: S. cerevisiae YEM-3 (no efflux pump introduced); assay: microbe, parasite or virus in culture; type: cell-based; details: Saccharomyces cerevisiae, read-out: MIC Mb alone
[2] = system: S. cerevisiae YEM-37 (CDR2 introduced); assay: microbe, parasite or virus in culture; type: cell-based; details: Saccharomyces cerevisiae, read-out: MIC Mb alone
[3] = system: S. cerevisiae YEM-39 (CgCDR introduced); assay: microbe, parasite or virus in culture; type: cell-based; details: Saccharomyces cerevisiae, read-out: MIC Mb alone
[4] = system: S. cerevisiae YEM-2 (BEN introduced); assay: microbe, parasite or virus in culture; type: cell-based; details: Saccharomyces cerevisiae, read-out: MIC Mb alone
[5] = system: S. cerevisiae YEM-38 (FLU1 introduced); assay: microbe, parasite or virus in culture; type: cell-based; details: Saccharomyces cerevisiae, read-out: MIC Mb alone
[6] = system: C. albicans YEM-30 (wild-type, no pump deleted); assay: microbe, parasite or virus in culture; type: cell-based
[7] = system: C. albicans YEM-20 (CDR1 deleted); assay: microbe, parasite or virus in culture; type: cell-based
[8] = system: C. albicans YEM-24 (CDR1, CDR2 deleted); assay: microbe, parasite or virus in culture; type: cell-based
[9] = system: C. albicans YEM-29 (BEN, FLU1 deleted); assay: microbe, parasite or virus in culture; type: cell-based
[10] = system: C. albicans YEM-10 (low level CDR1 expressor); assay: microbe, parasite or virus in culture; type: cell-based
[11] = system: C. albicans YEM-14 (low level CDR1 expressor); assay: microbe, parasite or virus in culture; type: cell-based
[12] = system: C. albicans YEM-11 (BEN overexpressor); assay: microbe, parasite or virus in culture; type: cell-based; details: Candida albicans, read-out: MIC Mb alone
[13] = system: C. albicans YEM-15 (CDR1 and CDR2 overexpressor); assay: microbe, parasite or virus in culture; type: cell-based; details: Candida albicans, read-out: MIC Mb alone
[14] = system: P388 cell line (mouse leukemia), adriamycin sensitive; assay: Adriamycin cytotoxicity (MTT), P-glycoprotein assay
Description: (§1) The inhibitory effect of milbemycin β1 against the mammalian P-glycoprotein multi-drug resistant pump was determined following the procedure described by Tsuruo et al (Cancer Res., 1981. 41:1967-1972) with slight modification. The cytotoxicity of antitumor agent, adriamycin, against adriamycin sensitive P388 cell line (mouse leukemia) and its adriamycin resistant subline line (P388/ADM) was measured in the presence of various concentrations of milbemycin β1. […] The assay is performed in serum-free media containing 20 μM of 2-mercaptoethanol. Chemosensitivity to adriamycin was determined […] based on the reduction of MTT (3-[4,5-dimethylthiazol-2-yl]-2,5-diphenyltetrazolium bromide) into blue formazan.

[15] = system: P388/ADM, adriamycin resistant subline; assay: as above
Description: as §1

[16] = system: C. albicans YEM-15 (CDR1 & CDR2 overexpressor); type: cell-based
[17] = system: C. glabrata YEM-17 (CgCDR overexpressor); assay: microbe, parasite or virus in culture; type: cell-based; parameters: MIC Reduction Factor, fluconazole / MIC Reduction Factor, itraconazole / MIC Reduction Factor, ketoconazole / MIC Reduction Factor, terbinafine: unit not given beside the values; details: for MIC: Nakaseomyces glabratus
C. krusei YEM-71 = assay: Broth dilution checkerboard, azoles and terbinafine with milbemycin α9 (Table 8); type: cell-based; parameters: MIC Reduction Factor, fluconazole / MIC Reduction Factor, itraconazole / MIC Reduction Factor, ketoconazole / MIC Reduction Factor, terbinafine: unit not given beside the values; details: for MIC: Pichia kudriavzevii
[18] = system: S. cerevisiae YEM-39 overexpressing CgCDR (C. glabrata); assay: microbe, parasite or virus in culture; type: cell-based; parameters: MIC Reduction Factor, fluconazole: unit not given beside the values; details: for MIC: Saccharomyces cerevisiae
[19] = molecular target: pFLU (MF) efflux pump in S. cerevisiae YEM-38 (Candida albicans, UniProt G1UB37); assay: cell-based; type: cell-based, C. albicans
[20] = system: C. glabrata clinical isolates (n = 12); assay: microbe, parasite or virus in culture; type: cell-based
C. lipolytica = assay: microbe, parasite or virus in culture; type: cell-based; details: strain 828B; MIC (80%) in YPD
C. tropicalis = assay: microbe, parasite or virus in culture; type: cell-based
C. neoformans = assay: microbe, parasite or virus in culture; type: cell-based, Cryptococcus neoformans
[21] = Candida albicans, read-out: MIC Mb alone
[22] = read-out: Terbinafine MIC in the presence of FEPImax
[23] = YEM-17, milbemycin α9 at FEPImax
[24] = YEM-71, milbemycin α9 at FEPImax
[25] = YEM-39 (CgCDR), milbemycin α9 at FEPImax
[26] = YEM-39, milbemycin α9 at FEPImax

Chain of pFLU (MF) efflux pump in S. cerevisiae YEM-38 (G1UB37 whole entry): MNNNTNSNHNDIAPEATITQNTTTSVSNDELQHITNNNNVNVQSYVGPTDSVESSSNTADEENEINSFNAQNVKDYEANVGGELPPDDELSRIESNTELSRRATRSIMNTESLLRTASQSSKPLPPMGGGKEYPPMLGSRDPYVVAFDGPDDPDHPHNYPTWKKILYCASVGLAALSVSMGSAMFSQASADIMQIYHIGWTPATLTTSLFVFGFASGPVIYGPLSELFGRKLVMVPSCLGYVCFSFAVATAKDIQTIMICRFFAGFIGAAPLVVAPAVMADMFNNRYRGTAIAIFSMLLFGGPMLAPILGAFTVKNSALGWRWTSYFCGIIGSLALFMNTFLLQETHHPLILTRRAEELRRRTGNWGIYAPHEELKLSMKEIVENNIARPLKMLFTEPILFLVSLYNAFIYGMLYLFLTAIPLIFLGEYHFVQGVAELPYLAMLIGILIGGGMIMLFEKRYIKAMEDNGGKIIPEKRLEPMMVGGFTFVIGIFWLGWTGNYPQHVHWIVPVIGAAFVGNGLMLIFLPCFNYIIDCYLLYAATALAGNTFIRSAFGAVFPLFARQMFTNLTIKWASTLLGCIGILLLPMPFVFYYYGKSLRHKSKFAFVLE

SMILES: CO[C@H]1C[C@@]2(O)/C(CO)=C/C=C/[C@H](C)C/C(C)=C/C[C@@H]3C[C@@H](C[C@]4(CC[C@H](C)[C@@H](C)O4)O3)OC(=O)[C@@H]2C=C1C [Compound 6, Milbemycin β1]
- MIC [1]: 8 µg/mL (≈ 14.7 µM)
- MIC [2]: 8 µg/mL (≈ 14.7 µM)
- MIC [3]: 8 µg/mL (≈ 14.7 µM)
- MIC [4]: 8 µg/mL (≈ 14.7 µM)
- MIC [5]: 8 µg/mL (≈ 14.7 µM)
- MIC [6, 21]: 16 µg/mL (≈ 29.4 µM)
- MIC of fluconazole, Flu + Mb (2.5 μg/ml) ([6]; YEM-30, milbemycin β1 2.5 μg/ml): 0.125 µg/mL
- MIC [7, 21]: 16 µg/mL (≈ 29.4 µM)
- MIC of fluconazole, Flu + Mb (2.5 μg/ml) ([7]; YEM-20, CDR1 deleted, milbemycin β1 2.5 μg/ml): 0.125 µg/mL
- MIC [8, 21]: 16 µg/mL (≈ 29.4 µM)
- MIC of fluconazole, Flu + Mb (2.5 μg/ml) ([8]; YEM-24, CDR1, CDR2 deleted, milbemycin β1 2.5 μg/ml): 0.125 µg/mL
- MIC [9, 21]: 16 µg/mL (≈ 29.4 µM)
- MIC of fluconazole, Flu + Mb (2.5 μg/ml) ([9]; YEM-29, BEN, FLU1 deleted, milbemycin β1 2.5 μg/ml): 0.03 µg/mL
- MIC [10, 21]: 16 µg/mL (≈ 29.4 µM)
- MIC of fluconazole, Flu + Mb (2.5 μg/ml) ([10]; YEM-10, milbemycin β1 2.5 μg/ml): 0.125 µg/mL
- MIC [11, 21]: 16 µg/mL (≈ 29.4 µM)
- MIC of fluconazole, Flu + Mb (2.5 μg/ml) ([11]; YEM-14, milbemycin β1 2.5 μg/ml): 0.125 µg/mL
- MIC [12]: 16 µg/mL (≈ 29.4 µM)
- MIC [13]: 16 µg/mL (≈ 29.4 µM)
- Adriamycin TC50, P388 ([14]; inhibitor 0.06 μg/ml): 0.009 µg/mL
- Adriamycin TC50, P388 ([14]; inhibitor 0.25 μg/ml): 0.009 µg/mL
- Adriamycin TC50, P388 ([14]; inhibitor 0.5 μg/ml): 0.011 µg/mL
- Adriamycin TC50, P388 ([14]; inhibitor 1 μg/ml): 0.009 µg/mL
- Adriamycin TC50, P388 ([14]; inhibitor 2 μg/ml): 0.012 µg/mL
- Adriamycin TC50, P388 ([14]; inhibitor 3.125 μg/ml): 0.011 µg/mL
- Adriamycin TC50, P388 ([14]; inhibitor […]): 0.008 µg/mL
- Adriamycin TC50, P388/ADM ([15]; inhibitor 0.06 μg/ml): 1.955 µg/mL
- Adriamycin TC50, P388/ADM ([15]; inhibitor 0.25 μg/ml): 0.66 µg/mL
- Adriamycin TC50, P388/ADM ([15]; inhibitor 0.5 μg/ml): 0.369 µg/mL
- Adriamycin TC50, P388/ADM ([15]; inhibitor 1 μg/ml): 0.215 µg/mL
- Adriamycin TC50, P388/ADM ([15]; inhibitor 2 μg/ml): 0.05 µg/mL
- Adriamycin TC50, P388/ADM ([15]; inhibitor 3.125 μg/ml): 0.051 µg/mL
- Adriamycin TC50, P388/ADM ([15]; inhibitor […]): 0.848 µg/mL
- Minimal concentration required to reduce the MIC of fluconazole by sixteen-fold [16]: <0.07 µg/mL

SMILES: C/C1=C\C[C@@H]2C[C@@H](C[C@]3(CC[C@H](C)[C@@H](C)O3)O2)OC(=O)[C@@H]2C=C(COC(=O)c3ccc[nH]3)[C@@H](O)[C@H]3OC/C(=C\C=C\[C@H](C)C1)[C@]32O [Compound 11, Milbemycin α9]
- MIC ([17]; read-out: Milbemycin α9 MIC): > 64 µg/mL
- MIC [17, 22]: 4 µg/mL
- FEPImax (minimal milbemycin α9 conc. for maximum MIC reduction), fluconazole ([17]; YEM-17): 8 µg/mL
- FEPImax (minimal milbemycin α9 conc. for maximum MIC reduction), itraconazole ([17]; YEM-17): 4 µg/mL
- FEPImax (minimal milbemycin α9 conc. for maximum MIC reduction), ketoconazole ([17]; YEM-17): 16 µg/mL
- FEPImax (minimal milbemycin α9 conc. for maximum MIC reduction), terbinafine ([17]; YEM-17): 4 µg/mL
- Fluconazole MIC in the presence of FEPImax [17, 23]: 4 µg/mL
- Itraconazole MIC in the presence of FEPImax [17, 23]: 0.125 µg/mL
- Ketoconazole MIC in the presence of FEPImax [17, 23]: 0.06 µg/mL
- MIC Reduction Factor, fluconazole [17, 23]: 32
- MIC Reduction Factor, itraconazole [17, 23]: 1024
- MIC Reduction Factor, ketoconazole [17, 23]: 32
- MIC Reduction Factor, terbinafine [17, 23]: 32
- MIC (C. krusei YEM-71; YEM71, read-out: Milbemycin α9 MIC): > 64 µg/mL
- MIC (C. krusei YEM-71; YEM71, read-out: Terbinafine MIC in the presence of FEPImax): 2 µg/mL
- FEPImax (minimal milbemycin α9 conc. for maximum MIC reduction), fluconazole (C. krusei YEM-71; YEM-71): 1 µg/mL
- FEPImax (minimal milbemycin α9 conc. for maximum MIC reduction), itraconazole (C. krusei YEM-71; YEM-71): 0.25 µg/mL
- FEPImax (minimal milbemycin α9 conc. for maximum MIC reduction), ketoconazole (C. krusei YEM-71; YEM-71): 2 µg/mL
- FEPImax (minimal milbemycin α9 conc. for maximum MIC reduction), terbinafine (C. krusei YEM-71; YEM-71): 0.008 µg/mL
- Fluconazole MIC in the presence of FEPImax (C. krusei YEM-71; [24]): 8 µg/mL
- Itraconazole MIC in the presence of FEPImax (C. krusei YEM-71; [24]): 0.008 µg/mL
- Ketoconazole MIC in the presence of FEPImax (C. krusei YEM-71; [24]): 0.015 µg/mL
- MIC Reduction Factor, fluconazole (C. krusei YEM-71; [24]): 16
- MIC Reduction Factor, itraconazole (C. krusei YEM-71; [24]): 64
- MIC Reduction Factor, ketoconazole (C. krusei YEM-71; [24]): 128
- MIC Reduction Factor, terbinafine (C. krusei YEM-71; [24]): 64
- MIC ([18]; read-out: Milbemycin α9 MIC): > 64 µg/mL
- MIC [18, 22]: 1 µg/mL
- FEPImax (minimal milbemycin α9 conc. for maximum MIC reduction), fluconazole ([18]; YEM-39 (CgCDR)): 2 µg/mL
- FEPImax (minimal milbemycin α9 conc. for maximum MIC reduction), terbinafine ([18]; YEM-39 (CgCDR)): 2 µg/mL
- Pump inhibition (%), fluconazole [18, 25]: 60%
- Pump inhibition (%), terbinafine [18, 25]: 66%
- Fluconazole MIC in the presence of FEPImax [18, 26]: 4 µg/mL
- MIC Reduction Factor, fluconazole [18, 26]: 16
- Inhibition of CgCDR efflux pump from C. glabrata ([18]; summary of Table 9, fluconazole and terbinafine): 60-65%
- IC50 [19]: > 100 µM
- Fluconazole MIC50, + milbemycin α9 [20]: 2 µg/mL
- Fluconazole MIC Range, + milbemycin α9 [20]: <0.25 to 16 µg/mL
- Reduction of fluconazole MIC90 by milbemycin α9 ([20]; C. glabrata (n=12)): 16 fold
- Fluconazole MIC90, + milbemycin α9 ([20]; C. glabrata n = 12, MIC (80%) in YPD): 8 µg/mL
- Fluconazole MIC, + milbemycin α9 (C. lipolytica): 8 µg/mL
- Fluconazole MIC, + milbemycin α9 (C. tropicalis): ≦0.25 μg/ml
- Fluconazole MIC, + milbemycin α9 (C. neoformans): ≦0.25 μg/ml
